Data reported in patent US20230265116A1, “DEGRADATION OF (EGFR) BY CONJUGATION OF EGFR INHIBITORS WITH E3 LIGASE LIGAND AND METHODS OF USE” (BEIGENE, LTD., priority 2020, published 2023).

Legend:
[1] = tested on: EGFR Del19/T790M/C797S (H1975-clone #28); experiment: EGFR degradation HTRF assay, H1975-clone #28 DTC cells; assay type: cell-based; conditions: H1975 # 28 DTC cells; for DC50: EGFR degradation, IC50 (DC50) from curve fit, read-out: DC50(nM) H1975 # 28 DTC; for Dmax (%) H1975 # 28 DTC: maximum percentage of inhibition (degradation)
Outline: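 Cells were dosed on day 2 with an 8-point, 5-fold dilution series starting at 10 uM final and incubated 16h at 37° C. After lysis for 1 hour, HTRF antibodies were added overnight at room temperature and the plate was read at 665/620 nm. Degradation was normalised to DMSO wells and fitted for DC50 and Dmax.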

[2] = biological target: T1, EGFR L858R/T790M/C797S (BaF3-LTC cells) (Homo sapiens, UniProt P00533, C797S/L858R/T790M); experiment: EGFR degradation HTRF assay, BaF3-LTC cells; assay type: cell-based; conditions: BaF3-LTC cells; for DC50: EGFR degradation, IC50 (DC50) from curve fit, read-out: DC50(nM) BaF3-LTC; for Dmax: maximum percentage of inhibition (degradation), read-out: Dmax (%) BaF3-LTC
T1 construct: expressed in transfected cells; host or cells: BaF3
Outline: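 EGFR remaining after a 16 h, 37 °C exposure (8 doses, 5-fold steps from 10 uM final, 0.2% DMSO) was quantified by HTRF antibodies in cell lysate. Percent inhibition relative to DMSO control was fitted by four-parameter logistic to give DC50; Dmax denotes maximal degradation.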

T1 sequence (P00533 25-1210 T790M/C797S/L858R): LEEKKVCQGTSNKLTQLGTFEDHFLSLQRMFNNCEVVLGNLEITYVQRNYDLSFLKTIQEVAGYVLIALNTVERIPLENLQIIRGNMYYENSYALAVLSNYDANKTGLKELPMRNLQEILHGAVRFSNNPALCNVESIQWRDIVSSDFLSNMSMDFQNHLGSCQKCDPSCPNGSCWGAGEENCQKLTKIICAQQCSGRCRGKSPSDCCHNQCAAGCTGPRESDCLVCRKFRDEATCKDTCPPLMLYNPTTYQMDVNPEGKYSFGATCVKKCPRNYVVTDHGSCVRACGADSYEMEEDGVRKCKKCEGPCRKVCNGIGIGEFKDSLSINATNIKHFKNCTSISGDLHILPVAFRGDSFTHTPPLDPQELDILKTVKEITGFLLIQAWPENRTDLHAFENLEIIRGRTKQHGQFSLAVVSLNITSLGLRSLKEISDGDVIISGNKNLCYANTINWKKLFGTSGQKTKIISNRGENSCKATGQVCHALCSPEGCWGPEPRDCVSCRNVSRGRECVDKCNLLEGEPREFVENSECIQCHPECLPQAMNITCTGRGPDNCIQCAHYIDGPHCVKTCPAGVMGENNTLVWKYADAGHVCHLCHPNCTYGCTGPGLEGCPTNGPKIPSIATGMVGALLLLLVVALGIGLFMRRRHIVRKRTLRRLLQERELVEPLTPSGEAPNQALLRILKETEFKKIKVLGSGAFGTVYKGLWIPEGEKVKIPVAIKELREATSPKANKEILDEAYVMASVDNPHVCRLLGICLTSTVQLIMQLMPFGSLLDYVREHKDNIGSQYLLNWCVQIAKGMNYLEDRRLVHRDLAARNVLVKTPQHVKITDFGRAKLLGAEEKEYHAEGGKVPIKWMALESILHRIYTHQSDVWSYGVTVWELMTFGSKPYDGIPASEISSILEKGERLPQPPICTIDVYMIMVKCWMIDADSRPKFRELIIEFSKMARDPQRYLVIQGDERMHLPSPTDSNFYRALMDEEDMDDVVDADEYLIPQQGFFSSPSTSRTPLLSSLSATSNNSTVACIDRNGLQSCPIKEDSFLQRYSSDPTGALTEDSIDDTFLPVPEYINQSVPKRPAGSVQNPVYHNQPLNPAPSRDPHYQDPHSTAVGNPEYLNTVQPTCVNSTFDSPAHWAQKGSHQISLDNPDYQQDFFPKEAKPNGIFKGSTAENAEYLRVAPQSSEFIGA

Row | SMILES | DC50 [1] [nM] | Dmax (%) H1975 # 28 DTC [1] [%] | DC50 [2] [nM] | Dmax [2] [%]
1 | CCc1cc(Nc2ncc(Br)c(Nc3ccc4nc(C(C)(C)O)ccc4c3P(C)(C)=O)n2)c(OC)cc1N1CCC(N2CCN(C(=O)[C@@H]3CCN(c4cc(F)c(C5CCC(=O)NC5=O)c(F)c4)C3)CC2)CC1 (stereo partly drawn) [Example 680, 3-(4-((R)-3-(4-(1-(4-((5-bromo-4-((5-(dimethylphosphoryl)-2-(2-hydroxypropan-2-yl)quinolin-6-yl)amino)pyrimidin-2-yl)amino)-2-ethyl-5-methoxyphenyl)piperidin-4-yl)piperazine-1-carbonyl)pyrrolidin-1-yl)-2,6-difluorophenyl)piperidine-2,6-dione] | 0.763 | 85.2 | 4.96 | 95.1
2 | CCOc1cc(N2CCC(N3CCN(CCc4c(F)cc(F)c5c4oc(=O)n5C4CCC(=O)NC4=O)CC3)CC2)c(CC)cc1Nc1ncc(Br)c(Nc2ccc3nc(CC)ccc3c2P(C)(C)=O)n1 (stereo not shown) [Example 731, 3-(7-(2-(4-(1-(4-((5-bromo-4-((5-(dimethylphosphoryl)-2-ethylquinolin-6-yl)amino)pyrimidin-2-yl)amino)-5-ethoxy-2-ethylphenyl)piperidin-4-yl)piperazin-1-yl)ethyl)-4,6-difluoro-2-oxobenzo[d]oxazol-3(2H)-yl)piperidine-2,6-dione] | 4.55 | 93.44 | 42.5 | 
3 | CCOc1cc(N2CCC(N3CCN(CCc4cc(F)c([C@H]5CCC(=O)NC5=O)c(F)c4)CC3)CC2)c(CC)cc1Nc1ncc(Cl)c(Nc2cc(F)c3nc(CC)ccc3c2P(C)(C)=O)n1 [Example 730, (R)-3-(4-(2-(4-(1-(4-((5-chloro-4-((5-(dimethylphosphoryl)-2-ethyl-8-fluoroquinolin-6-yl)amino)pyrimidin-2-yl)amino)-5-ethoxy-2-ethylphenyl)piperidin-4-yl)piperazin-1-yl)ethyl)-2,6-difluorophenyl)piperidine-2,6-dione] | 8.9 | 81.41 | 81.1 | 
4 | CCc1cc(Nc2ncc(Br)c(Nc3ccc4nc(C)ccc4c3P(C)(C)=O)n2)c(OC)cc1N1CCC(N2CCN(CCOc3cccc4c3n(C)c(=O)n4C3CCC(=O)NC3=O)CC2)CC1 (stereo not shown) [Example 683, 3-(4-(2-(4-(1-(4-((5-bromo-4-((5-(dimethylphosphoryl)-2-methylquinolin-6-yl)amino)pyrimidin-2-yl)amino)-2-ethyl-5-methoxyphenyl)piperidin-4-yl)piperazin-1-yl)ethoxy)-3-methyl-2-oxo-2,3-dihydro-1H-benzo[d]imidazol-1-yl)piperidine-2,6-dione] | 0.595 | 75.35 | 1.11 | 95.9
5 | CCOc1cc(N2CCC(N3CCN(CCCCc4cc(F)cc5c4oc(=O)n5C4CCC(=O)NC4=O)CC3)CC2)c(CC)cc1Nc1ncc(Br)c(Nc2ccc3nc(CC)ccc3c2P(C)(C)=O)n1 (stereo not shown) [Example 632, 3-(7-(4-(4-(1-(4-((5-bromo-4-((5-(dimethylphosphoryl)-2-ethylquinolin-6-yl)amino)pyrimidin-2-yl)amino)-5-ethoxy-2-ethylphenyl)piperidin-4-yl)piperazin-1-yl)butyl)-5-fluoro-2-oxobenzo[d]oxazol-3(2H)-yl)piperidine-2,6-dione] | 2.2 | 81.77 | 14.2 | 95.1
6 | CCOc1cc(N2CCC(N3CCN(CC4CN(c5cc(F)c(C6CCC(=O)NC6=O)c(F)c5)C4)CC3)CC2)c(CC)cc1Nc1ncc(Br)c(Nc2ccc3c(=O)n(C)ncc3c2P(C)(C)=O)n1 (stereo not shown) [Example 535, 3-(4-(3-((4-(1-(4-((5-bromo-4-((5-(dimethylphosphoryl)-2-methyl-1-oxo-1,2-dihydrophthalazin-6-yl)amino)pyrimidin-2-yl)amino)-5-ethoxy-2-ethylphenyl)piperidin-4-yl)piperazin-1-yl)methyl)azetidin-1-yl)-2,6-difluorophenyl)piperidine-2,6-dione] | 1.13 | 82.79 | 9.87 | 93.8
7 | CCOc1cc(N2CCC(N3CCN(CC4CN(c5cccc6c5n(C)c(=O)n6C5CCC(=O)NC5=O)C4)CC3)CC2)c(CC)cc1Nc1ncc(Br)c(Nc2ccc3c(=O)n(CC)ncc3c2P(C)(C)=O)n1 (stereo not shown) [Example 622, 3-(4-(3-((4-(1-(4-((5-bromo-4-((5-(dimethylphosphoryl)-2-ethyl-1-oxo-1,2-dihydrophthalazin-6-yl)amino)pyrimidin-2-yl)amino)-5-ethoxy-2-ethylphenyl)piperidin-4-yl)piperazin-1-yl)methyl)azetidin-1-yl)-3-methyl-2-oxo-2,3-dihydro-1H-benzo[d]imidazol-1-yl)piperidine-2,6-dione] | 4.78 | 75.46 | 37.3 | 94
8 | CCc1ccc2c(P(C)(C)=O)c(Nc3nc(Nc4cc(CC)c(N5CCC(N6CCN(C(=O)[C@@H]7CCN(c8cc(F)c(C9CCC(=O)NC9=O)c(F)c8)C7)CC6)CC5)cc4OC)ncc3Br)ccc2n1 (stereo partly drawn) [Example 515, 3-(4-((R)-3-(4-(1-(4-((5-bromo-4-((5-(dimethylphosphoryl)-2-ethylquinolin-6-yl)amino)pyrimidin-2-yl)amino)-2-ethyl-5-methoxyphenyl)piperidin-4-yl)piperazine-1-carbonyl)pyrrolidin-1-yl)-2,6-difluorophenyl)piperidine-2,6-dione] | 3.22 | 66.35 | 19.7 | 90.4
9 | CCOc1cc(N2CCC(N3CCN(CCc4cccc5c4C(C)(C)C(=O)N5C4CCC(=O)NC4=O)[C@H](CO)C3)CC2)c(CC)cc1Nc1ncc(Br)c(Nc2ccc3c(=O)n(CC)ncc3c2P(C)(C)=O)n1 (stereo partly drawn) [Example 641, 3-(4-(2-((S)-4-(1-(4-((5-bromo-4-((5-(dimethylphosphoryl)-2-ethyl-1-oxo-1,2-dihydrophthalazin-6-yl)amino)pyrimidin-2-yl)amino)-5-ethoxy-2-ethylphenyl)piperidin-4-yl)-2-(hydroxymethyl)piperazin-1-yl)ethyl)-3,3-dimethyl-2-oxoindolin-1-yl)piperidine-2,6-dione] | 0.666 | 76.33 | 7.79 | 96.1
10 | CCOc1cc(N2CCC(N3CCN(CCc4cc5oc(=O)n(C6CCC(=O)NC6=O)c5cc4Cl)CC3)CC2)c(CC)cc1Nc1ncc(Br)c(Nc2ccc3c(=O)n(CC)ncc3c2P(C)(C)=O)n1 (stereo not shown) [Example 626, 3-(6-(2-(4-(1-(4-((5-bromo-4-((5-(dimethylphosphoryl)-2-ethyl-1-oxo-1,2-dihydrophthalazin-6-yl)amino)pyrimidin-2-yl)amino)-5-ethoxy-2-ethylphenyl)piperidin-4-yl)piperazin-1-yl)ethyl)-5-chloro-2-oxobenzo[d]oxazol-3(2H)-yl)piperidine-2,6-dione] | 0.711 | 76.73 | 5.43 | 91
11 | CCOc1cc(N2CCC(N3CCN(C[C@@H]4CCN(c5cc(F)cc6c5oc(=O)n6C5CCC(=O)NC5=O)C4)CC3)CC2)c(CC)cc1Nc1ncc(Br)c(Nc2ccc3nc(CC)ccc3c2P(C)(C)=O)n1 (stereo partly drawn) [Example 476, 3-(7-((S)-3-((4-(1-(4-((5-bromo-4-((5-(dimethylphosphoryl)-2-ethylquinolin-6-yl)amino)pyrimidin-2-yl)amino)-5-ethoxy-2-ethylphenyl)piperidin-4-yl)piperazin-1-yl)methyl)pyrrolidin-1-yl)-5-fluoro-2-oxobenzo[d]oxazol-3(2H)-yl)piperidine-2,6-dione] | 7.95 | 74.62 | 26.5 | 88
12 | CCOc1cc(N2CCC(N3CCN(C(=O)[C@H]4CN(c5cc(F)c([C@H]6CCC(=O)NC6=O)c(F)c5)CC4(C)C)CC3)CC2)c(CC)cc1Nc1ncc(Br)c(Nc2cc(F)c3nc(CC)ccc3c2P(C)(C)=O)n1 [Example 746, (R)-3-(4-((R)-4-(4-(1-(4-((5-bromo-4-((5-(dimethylphosphoryl)-2-ethyl-8-fluoroquinolin-6-yl)amino)pyrimidin-2-yl)amino)-5-ethoxy-2-ethylphenyl)piperidin-4-yl)piperazine-1-carbonyl)-3,3-dimethylpyrrolidin-1-yl)-2,6-difluorophenyl)piperidine-2,6-dione] | 11 | 77.61 | 30.9 | 
13 | CCOc1cc(N2CCC(N3CCN(C[C@@H]4CCN(c5cccc6c5oc(=O)n6C5CCC(=O)NC5=O)C4)CC3)CC2)c(CC)cc1Nc1ncc(Br)c(Nc2ccc3c(=O)n(CC)ncc3c2P(C)(C)=O)n1 (stereo partly drawn) [Example 623, 3-(7-((S)-3-((4-(1-(4-((5-bromo-4-((5-(dimethylphosphoryl)-2-ethyl-1-oxo-1,2-dihydrophthalazin-6-yl)amino)pyrimidin-2-yl)amino)-5-ethoxy-2-ethylphenyl)piperidin-4-yl)piperazin-1-yl)methyl)pyrrolidin-1-yl)-2-oxobenzo[d]oxazol-3(2H)-yl)piperidine-2,6-dione] | 1.31 | 75.76 | 17.1 | 92
